{"source": "paper PMC3448953", "about": "(2012)", "target": "BioA (Mycobacterium tuberculosis, UniProt P9WQ81)", "sequence (P9WQ81 whole entry)": "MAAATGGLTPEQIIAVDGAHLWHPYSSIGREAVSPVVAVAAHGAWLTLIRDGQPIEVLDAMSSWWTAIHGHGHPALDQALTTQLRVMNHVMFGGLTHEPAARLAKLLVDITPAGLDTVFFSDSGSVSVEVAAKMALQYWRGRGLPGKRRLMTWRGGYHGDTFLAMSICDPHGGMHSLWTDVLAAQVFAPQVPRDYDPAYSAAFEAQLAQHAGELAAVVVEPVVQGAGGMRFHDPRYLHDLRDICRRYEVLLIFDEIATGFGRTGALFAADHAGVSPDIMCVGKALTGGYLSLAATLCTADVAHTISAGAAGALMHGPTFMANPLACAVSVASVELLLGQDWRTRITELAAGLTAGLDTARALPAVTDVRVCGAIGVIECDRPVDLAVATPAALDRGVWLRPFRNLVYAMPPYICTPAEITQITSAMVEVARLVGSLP", "test": "continuous coupled fluorescence enzyme assay", "assay_type": "biochemical", "note": "Where a name gives a salt, the structure may show the parent alone."}
{"smiles": "N[C@H]1C=C[C@@H](CCCO)C1", "note": "(racemic) [M-2, (±)-cis-3-(-4-Aminocyclopent-2-enyl)propan-1-ol hydrochloride salt]", "values": [{"measurement": "IC50", "value": "57 ± 1.9", "unit": "µM"}]}
